One assay deals with blood brain barrier. The assay is described as follows: Fluorescently labeled dextran extravasation into mouse brain (fluorimetry). It counts as in vivo, mice. As to the method: The adenosine receptor agonists NECA, CCPA, CGS 21860, and SCH 58261 (Tocris, Ellisville, Mo.) were each dissolved in DMSO then diluted in PBS to the desired concentration; in most cases final DMSO concentrations were <0.5% (vol/vol). Lexiscan (Regadenoson; TRC, Inc., Toronto) was dissolved in PBS. For vehicle controls, DMSO was diluted in PBS to the same concentration. Dehydrated dextrans labeled with either FITC or Texas Red (Invitrogen, Carlsbad, Calif.) were re-suspended in PBS to 10 mg/ml. All experiments involving dextran injection used 1.0 mg dextran in PBS. In experiments where drug and dextran were injected concomitantly, 1.0 mg of dextran was mixed with the drug to the desired concentration in a final volume of 200 μl. In dose-response experiments, drugs and dextrans were injected concomitantly. All injections, except injections of SCH 58261, were retro-orbital i.v. with a 27-gauge needle. In the SCH 58261 experiment, SCH 58261 injections, 1 mg/kg, were intraperitoneal and mice were pre-dosed with this concentration daily for 4 days prior to the day of the experiment. An additional injection was administered at the time of the experiment. Vehicle/drug and dextrans were injected on day 5 and tissues were collected 3 h after vehicle/drug administration. In Lexiscan experiments, Lexiscan was administered i.v. with 3 injections, 5 min apart and tissues were collected at 15 min unless otherwise indicated.
In dose-response experiments and experiments with the A1 AR and A2A AR knock-out mice, drugs and dextrans were injected concomitantly. After 3 h, the mice were anesthetized with ketamine/xylazine and subjected to a nose cone containing isoflurane. They were perfused with 25-50 ml ice-cold PBS through the left ventricle of the heart then decapitated. Their brains were removed, weighed and frozen for later analysis.
Ice-cold 50 mMTris-Cl (pH 7.6) was added to frozen brains (100 μl per 100 mg brain) and were to thawed on ice. They were homogenized with a dounce homogenizer and centrifuged at […] in a microfuge for 30 min at room temperature (rt). The supernatants were transferred to new tubes and an equal volume absolute methanol was added. The samples were centrifuged again at […] for 30 min at rt. Supernatant (200 μl) was transferred to a Corning costar 96 well black polystyrene assay plate (clear bottom). Additionally, a series of standards containing 0.001-10 pg/ml dextran in 50% Tris-Cl/50% absolute methanol (vol/vol) was added to each plate. Absolute concentrations of dextrans were derived from these standard curves. Fluorimetric analysis was performed on a BioTek (Winooski, Vt.) Synergy 4. FITC-dextran was detected at 488/519 (excitation/emission) and Texas Red-dextran was detected at 592/618.

Assay [1] deals with CD4+ lymphocytes in the brain and spinal cord. The assay can be described thus: CD4+ lymphocyte infiltration of brain and spinal cord after EAE induction (immunohistochemistry). It is filed as in vivo. Conditions: wild type mice, day 15 post-EAE induction, vs DMSO. As to the method:
Anesthetized mice were perfused with PBS, and brains, spleens, and spinal cords were isolated and snap frozen in Tissue Tek-OCT medium. Five μm sections (brains in a sagittal orientation) were affixed to Supefrost/Plus slides (Fisher), fixed in acetone, and stored at −80° C. For immunostaining, slides were thawed and treated with 0.03% H2O2 in PBS to block endogenous peroxidase, blocked with Casein (Vector) in normal goat serum (Zymed), and then incubated with anti-CD45 (YW62.3), anti-CD4 (RM4-5), or anti-ICAM-1 (3E2). Slides were incubated with biotinylated goat anti-rat Ig (Jackson ImmunoResearch) and streptavidin-HRP (Zymed) and developed with an AEC (Red) substrate kit (Zymed) and a hematoxylin counterstain. […]
As CD73 catalyzes the breakdown of AMP to adenosine and ARs are expressed in the CNS (Tsutsui et al., “A1 Adenosine Receptor Upregulation and Activation Attenuates Neuroinflammation and Demyelination in a Model of Multiple Sclerosis,” J. Neurosci. 24:1521-1529 (2004)); Rosi et al., The Influence of Brain Inflammation Upon Neuronal Adenosine A2B Receptors,” J. Neurochem. 86:220-227 (2003), which are hereby incorporated by reference in their entirety), it was next determined if AR signaling is important during EAE progression. […] Since CD73 is highly expressed on the choroid plexus (FIG. 6C), it was next determined if ARs are also expressed on the choroid plexus. […]

Here are results for two compounds from patent US20130224110A1, “USE OF ADENOSINE RECEPTOR SIGNALING TO MODULATE PERMEABILITY OF BLOOD-BRAIN BARRIER” (CORNELL UNIVERSITY, priority 2010, published 2013).

For `Nc1nc2c(cnn2CCc2ccccc2)c2nc(-c3ccco3)nn12` [SCH58261, 2-(2-Furanyl)-7-(2-phenylethyl)-7H-pyrazolo[4,3-e][1,2,4]triazolo[1,5-c]pyrimidin-5-amine], the “BBB permeability after NECA administration with A2A blockade” value in the assay with blood brain barrier (A1 AR−/− mice pre-treated with the antagonist before NECA) was “no significant increase in BBB permeability was observed”. For the same compound, the “entry of 10,000 Da FITC-dextran into brain” value in the assay on blood brain barrier (WT mice, 1 mg/kg intraperitoneal daily for 4 days plus day of experiment) was “significantly decreased entry of 10,000 Da FITC-dextran”. The “frequency of CD4+ lymphocytes in the brain and spinal cord” value in assay [1] was “significantly lower frequency of CD4^+ lymphocytes in the brain and spinal cord”.
As for `CCNC(=O)[C@H]1O[C@@H](n2cnc3c(N)ncnc32)[C@H](O)[C@@H]1O` [NECA, 5′-N-ethylcarboxamido adenosine], the “levels of i.v.-administered dextrans in brain compared to wild type mice” value in the assay with blood brain barrier (A1−/− and A2A−/− mice, i.v., 3 h) is given as “significantly lower levels”. In addition, the “FITC-dextran extravasation into brain (pilot experiment, data not shown)” value in the assay with blood brain barrier (CD73−/− mice, 10,000 Da FITC-dextran i.v.) is recorded as “dramatic increase in FITC-dextran extravasation”. Also, the “time of maximum entry of labeled dextran into the CNS post-treatment” value in the assay on blood brain barrier (WT mice, 0.08 mg/kg i.v., dextran co-administered at T0) lay in the range of 4 to 6 h. Besides, the “time by which barrier permeability returns to baseline” value with blood brain barrier (WT mice, 0.08 mg/kg i.v., dextran given at indicated times after treatment) is 8 to 18 h. Further, the “effect of higher concentrations on dextran entry” value in the assay on blood brain barrier (WT mice, doses above 0.08 mg/kg) is “no additional effect or show diminished efficacy”. The “dose giving maximum entry of dextrans into the CNS” value in the assay on blood brain barrier (WT mice, i.v., 3 h) stood at 0.08 mg/kg. Moreover, the “CNS entry of 10,000 Da and 70,000 Da dextrans” value in the assay with blood brain barrier (WT mice, i.v., 3 h, varying dose, vs vehicle) is listed as “dose-dependent increases in CNS entry”.
